# Columns and labels:
# [1] = Physiological compatibility, parenteral administration in mice; conditions: in vivo, other: parenteral, mouse
# Method: The compound according to example 1 was tested for its physiological compatibility via parenteral administration in mice. The LD50 (parenteral, mouse) is 800 mg/kg. Accordingly compound 1 can be considered to be physiologically compatible.
# [2] = system: tartrate resistant acid phosphatase-5 (TRAP5); test: TRAP5 mRNA expression in OCL (quantitative RT-PCR); assay type: cell-based, human; conditions: OCL after coculture with OPM-2
# Method: In osteoclast coculture experiments, OPM-2 cells (1×10^6 cells) were added to osteoclasts in 60 mm dishes (4×10^6 cells per dish) in 3 ml MEM medium supplemented with 10% FCS, 100 U/ml penicillin, 100 μg/ml streptomycin. GSI15 (30 μM, 60 μM) or DMSO (equivalent to 60 μM) as solvent control were added to each well (daily treatment). After 48 h, 0.5 ml OPM-2 cell suspension were harvested per well and subjected to AnnexinV-FITC/PI staining. Remaining OPM-2 cells were harvested and lysed for either RNA or protein preparation. The monolayer of osteoclasts was washed twice with ice-cold PBS and then lysed for either RNA or protein preparation directly on the plate.
# Quantitative real-time reverse transcription-PCR (RT-PCR) analysis was performed using the following primer/probe sets: human Hes-1 (forward—[…], reverse—[…], probe—FAM-[…]-TAMRA) human TRAP5 (forward—[…], reverse—[…], probe FAM-[…]-TAMRA), human beta2-microglobulin (forward—ccc cca ctg aaa aag atg ag, reverse—atc caa tcc aaa tgc ggc, probe—FAM-CCTGCCGTGTGAACCATGTGACTTT-TAMRA) served as normalizer. […] For the RT-PCR reaction SuperScript™ III Platinum® One-Step Quantitative RT-PCR System (Invitrogen, Karlsruhe, Germany) was used. 50 ng total RNA were used per reaction, each RNA sample was analyzed in three replicates. […] Normalized mRNA expression data were then calculated as values relative to the respective untreated sample.
# [3] = system: U266 cells; test: PARP cleavage by Western blotting, U266; assay type: cell-based, human
# Method: Whole cell extracts were prepared and quantified as described in Jundt F, Anagnostopoulos I, Forster R, Mathas S, Stein H, Dorken B. Activated Notch1 signaling promotes tumor cell proliferation and survival in Hodgkin and anaplastic large cell lymphoma. Blood. 2002; 99:3398-3403. Proteins (30 μg) were resolved by sodium dodecyl sulfate-polyacrylamide gel electrophoresis (SDS-PAGE) and transferred to nitrocellulose membranes. Protein loading was normalized by Ponceau red staining. Membranes were incubated with monoclonal mouse anti-Notch1 antibody (no. 552466; BD Biosciences, Heidelberg, Germany), anti-Jagged1 antibody (sc-8303; Santa Cruz Biotechnology), polyclonal rabbit anti-Delta antiboday (Santa Cruz Biotechnology), polyclonal rabbit anti-cleaved PARP (Asp214) antibody (Cell Signaling Technologies, Frankfurt a.M., Germany) or mouse monoclonal anti-tubulin antibody (Sigma, Deisenhofen, Germany).
# Secondary antibodies were goat anti-mouse (Promega, Mannheim, Germany), goat anti-rat (Dianova, Hamburg, Germany), and goat anti-rabbit (Santa Cruz Biotechnology) horseradish peroxidase (HRP)-conjugated antibodies. Detection was done using Pico chemi-luminescence reagent (Perbio Science, Bonn, Germany).
# [4] = system: OBL; test: Viability assay, OBL; assay type: cell-based, human
# Method: For assaying proliferation/viability of cells CellTiter-Glo Luminescent Cell Viability Assay (Promega, Mannheim, Germany) was used. In this assay the number of viable cells at a given time point is determined by quantification of ATP present, which serves as a measure of metabolically active cells. The assay was carried out according to manufacturer's protocol. Briefly, cells were plated in 96-well plates at 10,000 cells per well in 100 μl medium and treated with indicated amounts of GSI15, with DMSO as solvent control or left untreated. Each treatment was done in four independent replicates in different wells. 24 h and 48 h after start of treatment 30 μl per well were transferred into an opaque-walled plate and lysed using CellTiter-Glo solution. Luminescence was recorded and integrated for two seconds per well. Average values were calculated and normalized to the respective untreated sample.
compound,measurement,setting,value
"CC(C)c1ccc(S(=O)(=O)Nc2cccnc2Oc2ccc(Cl)cc2)cc1 [Example 1, N-(2-(4-chlorophenoxy)pyridin-3-yl)-4-isopropylbenzenesulfonamide]",LD50,[1],800 mg/kg
same,TRAP5 mRNA expression,[2],completely blocked the upregulation of TRAP5 mRNA expression
same,PARP cleavage product (apoptosis marker),[3],not in the U266 cell line
same,viability,[4],no difference between untreated and GSI15 treated

# From US20110251220A1, “Pharmaceutical compositions comprising gamma secretase modulators” (priority 2008, published 2011)
